Series [1] has as its system Vancomycin-resistant Enterococcus faecalis. The series is described as follows: MIC microdilution, VR E. faecalis. The class given is cell-based. To be noted: read-out: MIC Vancomycin-resistant Enterococcus faecalis. The method, then:
(§1) Minimum inhibitory concentrations (MICs) were determined using the microdilution method in 96-well format plates. Each of the compounds of Examples was dissolved in dimethyl sulfoxide to a concentration of 2 mg/mL and stored at 4° C. until used. They were diluted in Mueller-Hinton Broth (MHB) and used for MIC determination. The range of concentrations tested was […] final concentration using a two-fold dilution system. Plates were incubated at 37° C. and MIC were recorded after 24 hours of incubation for bacteria.
(§2) Linezolid and vancomycin were used as standard antibiotics, respectively.
On the technique in general: Dilution methods test growth across graded concentrations, often in twofold steps.

In series [2] the test system is Vancomycin-resistant Enterococcus faecium. The series is described as follows: MIC microdilution, VR E. faecium. The class given is cell-based. The settings on record: read-out: MIC Vancomycin-resistant Enterococcus faecium. The method, then: as §1, §2
In series [3] the test system is Streptococcus Pneumoniae Pen NS. Nature of the series: MIC microdilution, S. Pneumoniae Pen NS. The class given is cell-based. The settings on record: read-out: MIC Streptococcus Pneumoniae Pen NS. The method, then:
as §1, §2

For series [4], the system named is Streptococcus Pneumoniae Pen S. Nature of the series: MIC microdilution, S. Pneumoniae Pen S. The class given is cell-based. The settings on record: read-out: MIC Streptococcus Pneumoniae Pen S. The method, then:
as §1, §2

The next series has as its system Streptococcus pyogenes. Nature of the series: MIC microdilution, S. pyogenes. The class given is cell-based. To be noted: read-out: MIC Streptococcus pyogenes. The method, then: as §1, §2
Series [5] in a line: Acute toxicity study in mice. To be noted: mouse, in vivo, po, 4000 mg/kg; ICR mice, orally, observed for 14 days. The method, then:
The acute toxicity of the compounds of Example 5, 17 and 22 were tested using several groups of ICR mice each of 6 mice.

Series [6] has as its target PDF enzyme (Escherichia coli, UniProt P0A6K3). The series is described as follows: PDF/FDH coupled enzyme assay, E. coli. The class given is biochemical. To be noted: PDF/FDH coupled assay, substrate fMAS, absorption at 340 nm; read-out: IC50 Escherichia coli. The method, then: Activities of PDF enzyme for E. coli and S. aureus were determined using PDF/FDH coupled assay. In this coupled assay, the formate released by PDF from its substrate formyl-Methionine-Alanine-Serine (fMAS) is oxidized by coupling enzyme formate dehydrogenase (FDH), reducing one molecule of NAD^+ to NADH, which is measured absorption at 340 nm.

Series [7] deals with T1, PDF enzyme (Streptococcus pneumoniae serotype 4, UniProt Q9F2F0).
T1 sequence (Q9F2F0 1-203): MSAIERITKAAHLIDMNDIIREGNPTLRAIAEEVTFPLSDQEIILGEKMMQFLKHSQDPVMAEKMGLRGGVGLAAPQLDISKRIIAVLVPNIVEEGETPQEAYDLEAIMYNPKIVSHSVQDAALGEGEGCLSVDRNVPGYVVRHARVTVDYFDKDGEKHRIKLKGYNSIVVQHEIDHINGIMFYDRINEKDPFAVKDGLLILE
Nature of the series: PDF/FDH coupled enzyme assay, Streptococcus Pneumoniae. The class given is biochemical. To be noted: substrate fMAS, absorption at 340 nm.

Series [8] has as its target PDF enzyme (Streptococcus pyogenes serotype M1, UniProt P68771). Nature of the series: PDF/FDH coupled enzyme assay, Streptococcus pyogenes. The class given is biochemical. To be noted: PDF/FDH coupled assay, substrate fMAS, absorption at 340 nm; read-out: IC50 Streptococcus pyogenes.
Where [9] appears, read: microdilution, Mueller-Hinton Broth, 37° C., 24 hours.

Each structure is given as a SMILES string. Values after ≈ are worked out from the molar mass of the structure shown. Where two headings read alike, the source gives them in different places. Where only a bound is given, the exact number is not on record here.

PDF enzyme (Escherichia coli, UniProt P0A6K3), sequence (P0A6K3 whole entry): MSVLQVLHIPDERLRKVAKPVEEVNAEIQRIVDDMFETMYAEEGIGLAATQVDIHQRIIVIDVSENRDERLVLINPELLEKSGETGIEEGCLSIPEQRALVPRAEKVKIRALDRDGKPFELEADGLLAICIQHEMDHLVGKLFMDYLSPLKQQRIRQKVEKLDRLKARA
PDF enzyme (Streptococcus pyogenes serotype M1, UniProt P68771), sequence (P68771 whole entry): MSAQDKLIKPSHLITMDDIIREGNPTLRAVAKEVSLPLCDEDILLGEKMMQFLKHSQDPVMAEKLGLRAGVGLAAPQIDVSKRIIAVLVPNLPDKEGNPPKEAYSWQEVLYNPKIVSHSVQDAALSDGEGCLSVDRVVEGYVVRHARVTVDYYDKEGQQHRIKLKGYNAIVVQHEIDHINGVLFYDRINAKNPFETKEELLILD

Usually MIC stands for the smallest concentration in the dilution series that meets the test's criterion for growth inhibition. The LD50 is the dose at which mortality reaches 50%. A higher LD50 goes with a less toxic substance. Take `COc1ccc(CNC2CCN(C(=O)[C@@H](NC(=O)[C@H](CC3CCCC3)CN(O)C=O)C(C)(C)C)CC2)cc1` [Example 5, (R)-2-Cyclopentylmethyl-3-(formyl-hydroxy-amino)-N-{(S)-1-[4-(4-methoxy-benzylamino)-piperidine-1-carbonyl]-2,2-dimethyl-propyl}-propionamide]: the MIC came to 6.3 µg/mL (≈ 11.9 µM) in series [1] (setting [9]); 1.6 µg/mL (≈ 3.01 µM) in [2] (setting [9]); 0.8 µg/mL (≈ 1.51 µM) in series [3] (setting [9]); 0.2 µg/mL (≈ 0.377 µM) in series [4] (setting [9]); 0.4 µg/mL (≈ 0.754 µM) in the series on Streptococcus pyogenes (setting [9]). In addition, the 50% lethal dose (LD50) at 14 days in series [5] was above 2000 mg/kg.
The IC50 is the concentration that gives 50% inhibition. On to `CC(C)(C)[C@H](NC(=O)[C@H](CC1CCCC1)CN(O)C=O)C(=O)N1CCC(Nc2ccc(O)cc2)CC1` [Example 20, (R)-2-Cyclopentylmethyl-3-(formyl-hydroxy-amino)-N-{(S)-1-[4-(4-hydroxy-phenylamino)-piperidine-1-carbonyl]-2,2-dimethyl-formyl}-propionamide], for which the half-inhibitory concentration (IC50) on PDF enzyme [6] stood at 102 nM; at PDF enzyme [7] it was 63 nM; on PDF enzyme [8] it was 61 nM. Besides, the MIC in [1] (setting [9]) worked out at 25 µg/mL (≈ 49.7 µM); in [2] (setting [9]), 25 µg/mL (≈ 49.7 µM); in [3] (setting [9]), 3.1 µg/mL (≈ 6.17 µM); in [4] (setting [9]), 0.8 µg/mL (≈ 1.59 µM); in the series on Streptococcus pyogenes (setting [9]), 1.6 µg/mL (≈ 3.18 µM).
In the case of `CN(c1ccccc1)C1CCN(C(=O)[C@@H](NC(=O)[C@H](CC2CCCC2)CN(O)C=O)C(C)(C)C)CC1` [Example 22, (R)-2-Cyclopentylmethyl-N-{(S)-2,2-dimethyl-1-[4-(methyl-phenyl-amino)-piperidine-1-carbonyl]-propyl}-3-(formyl-hydroxy-amino)-propionamide], the values for the IC50 on PDF enzyme [6], against PDF enzyme [7] and on PDF enzyme [8] were 113 nM, 25 nM and 42 nM, respectively. Also, the MIC in series [1] (setting [9]) came out at 3.1 µg/mL (≈ 6.19 µM); in series [2] (setting [9]), 0.2 µg/mL (≈ 0.399 µM); in series [3] (setting [9]), 0.2 µg/mL (≈ 0.399 µM); in series [4] (setting [9]), 0.05 µg/mL (≈ 0.0999 µM); in the series on Streptococcus pyogenes (setting [9]), 0.05 µg/mL (≈ 0.0999 µM). In series [5], this compound yielded an LD50 at 14 days above 2000 mg/kg.
With `Cc1ccc(CNC2CCN(C(=O)[C@@H](NC(=O)[C@H](CC3CCCC3)CN(O)C=O)C(C)(C)C)CC2)cc1` [Example 2, (R)-2-Cyclopentylmethyl-N-{(S)-2,2-dimethyl-1-[4-(4-methyl-benzylamino)-piperidine-1-carbonyl]-propyl}-3-(formyl-hydroxy-amino)-propionamide], the values for the IC50 at PDF enzyme [6], on PDF enzyme [7] and on PDF enzyme [8] were 132 nM, 77 nM and 86 nM, respectively. Moreover, the minimum inhibitory concentration (MIC) in series [1] (setting [9]) came out at 3.1 µg/mL (≈ 6.02 µM); in [2] (setting [9]), 0.4 µg/mL (≈ 0.777 µM); in series [3] (setting [9]), 0.4 µg/mL (≈ 0.777 µM); in [4] (setting [9]), 0.1 µg/mL (≈ 0.194 µM); with Streptococcus pyogenes (setting [9]) it was 0.2 µg/mL (≈ 0.389 µM).
For the compound `CC(C)(C)[C@H](NC(=O)[C@H](CC1CCCC1)CN(O)C=O)C(=O)N1CCC(NCc2ccc(O)cc2)CC1` [Example 6, (R)-2-Cyclopentylmethyl-3-(formyl-hydroxy-amino)-N-{(S)-1-[4-(4-hydroxy-benzylamino)-piperidine-1-carbonyl]-2,2-dimethyl-formyl}-propionamide], the half-inhibitory concentration (IC50) on PDF enzyme [6] worked out at 102 nM; at PDF enzyme [7], 42 nM; on PDF enzyme [8], 84 nM. Also, the MIC in series [1] (setting [9]) is above 50 µg/mL; in [2] (setting [9]), 50 µg/mL (≈ 96.8 µM); in series [3] (setting [9]), 3.1 µg/mL (≈ 6 µM); in [4] (setting [9]) it was 0.8 µg/mL (≈ 1.55 µM); in the series with Streptococcus pyogenes (setting [9]) it was 0.8 µg/mL (≈ 1.55 µM).
Regarding `CC(C)(C)[C@H](NC(=O)[C@H](CC1CCCC1)CN(O)C=O)C(=O)N1CCC(Nc2ccc(F)cc2)CC1` [Example 17, (R)-2-Cyclopentylmethyl-N-{(S)-1-[4-(4-fluoro-phenylamino)-piperidine-1-carbonyl]-2,2-dimethyl-propyl}-3-(formyl-hydroxy-amino)-propionamide], the minimal inhibitory concentration (MIC) in series [1] (24 h) came out at 3.1 µg/mL (≈ 6.14 µM); in series [2] (24 h) it was 0.4 µg/mL (≈ 0.793 µM); in [3] (24 h) it was 0.8 µg/mL (≈ 1.59 µM); in series [4] (24 h), 0.2 µg/mL (≈ 0.396 µM); with Streptococcus pyogenes (24 h), 0.2 µg/mL (≈ 0.396 µM). This compound also gave a 50% lethal dose (LD50) at 14 days in [5] above 2000 mg/kg.

The values above are taken from patent US20100168421A1, “A NEW PEPTIDE DEFORMYLASE INHIBITOR COMPOUND AND MANUFACTURING PROCESS THEREOF” (priority 2007, published 2010).
